In patent publication US20260206757A1, “METHODS OF CONTROLLING UNDESIRABLE PLANTS WITH PPO HERBICIDES AND COMBINATIONS IN HERBICIDE TOLERANT CROP PLANTS” (BASF AGRO B.V., priority 2022, published 2026):

Columns and labels:
[1] = system: HELAN Pacino; test: Greenhouse experiment, crop safety of sunflower; format: in vivo, Helianthus annuus; details: scale 0 to 100%
Method: (§1) For the post emergence treatment, the plants were first grown to the 2 to 4 leaf stage (GS 12/14). The plants were cultivated due to their individual requirements at 10-25° C. and 20-35° C. The plants were irrigated as required.
(§2) Here, the herbicidal compositions were suspended or emulsified in water as distribution medium and sprayed using finely distributing nozzles. 1% methylated seed oil (MSO) has been added as adjuvant to each of the solo and mixture treatments.
(§3) In the greenhouse experiments, the herbicidal activity for the individual herbicidal compositions (solo and mixture applications) was assessed 20/21 days after treatment (DAT).
(§4) The evaluation for the damage on undesired weeds caused by the chemical compositions was carried out using a scale from 0 to 100%, compared to the untreated control plants. Here, 0 means no damage and 100 means complete destruction of the plants.

[2] = system: HELAN w F(383)I; test: Greenhouse experiment, crop safety of PPO inhibitor tolerant sunflower; format: in vivo, Helianthus annuus; details: scale 0 to 100%
Method: as §1, §2, §3, §4

[3] = system: Solanum nigrum; test: Greenhouse experiment, post emergence herbicidal activity; format: in vivo; details: SOLNI, BBCH 12-14, Flumioxazin 1, Fomesafen 123 g ai/ha
In short: (§5)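 Weeds grown to GS 12/14 under species-specific temperatures (10-25° C. or 20-35° C.) received a fine-nozzle spray of water-dispersed compositions containing 1% MSO. Injury was assessed 20/21 days later against untreated controls, 0 meaning no damage and 100 complete kill.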

[4] = system: Portulaca oleracea; test: as above; format: in vivo; details: POROL, BBCH 12-14, Flumioxazin 4, Bifenox 168 g ai/ha
In short: as §5

[5] = system: Amaranthus retroflexus; test: Field experiment, post-emergence herbicidal activity; format: in vivo; details: AMARE, postemergence
Method: (§6) Trial Objective: Saflufenacil in tank mix with Pendimethalin efficacy on weeds and grasses in early post-emergence of the weeds
(§7) On field test sites, natural weed infestation was treated, pre-emergence of the weeds on bare soil or post-emergence of the weeds.
(§8) For the post emergence treatment, the weedy plants were treated between the 2-4 true leaf stage (GS12-14) and the 6 true leaf stage (GS 16). The herbicidal compositions were suspended or emulsified in water as distribution medium and sprayed with commercial flat fan nozzles using between 100 and 200 l/ha water.
(§9) In the following experiments, the herbicidal activity for the individual herbicidal compositions (solo and mixture applications) was assessed up to 36 days after treatment (DAT). The assessments for the damage on undesired weeds caused by the chemical compositions was carried out using a scale from 0 to 100%, compared to the untreated control plants. Here, 0 means no damage and 100 means complete destruction of the plants.
(§10) [formula] • where X=effect in percent using herbicide (A) at an application rate a; • Y=effect in percent using herbicide (B) at an application rate b; • E=expected effect (in %) of herbicide (A)+herbicide (B) at application rates a+b.
(§11) The value E corresponds to the effect (plant damage or injury) which is to be expected if the activity of the individual compounds is additive. If the observed effect is higher than the value E calculated according to the Colby equation, a synergistic effect is present.

[6] = system: Echinochloa crus-galli; test: as above; format: in vivo; details: ECHCG, postemergence
Method: as §6, §7, §8, §9, §10, §11

[7] = system: Mercuralis annua; test: as above; format: in vivo; details: MERAN, postemergence, Saflufenacil 12.5, Pendimethalin 1365 g ai/ha
Method: as §6, §7, §8, §9, §10, §11

[8] = BBCH 12-14, Flumioxazin 0.5, Bifenox 168 g ai/ha
[9] = BBCH 12-14, Flumioxazin 0.5, Halauxifen 1 g ai/ha
[10] = Saflufenacil 12.5, Pendimethalin 1064 g ai/ha

Row | Compound | Observed crop damage 21 days after treatment [1, 8] | Observed crop damage 21 days after treatment [1, 9] | Observed crop damage 21 days after treatment [2, 8] | Observed crop damage 21 days after treatment [2, 9] | % Herbicidal activity [3] | % Herbicidal activity [4] | % Herbicidal activity ([5]; Saflufenacil 12.5, Pendimethalin 840 g ai/ha) | % Herbicidal activity [5, 10] | % Herbicidal activity [6, 10] | % Herbicidal activity ([6]; Saflufenacil 12.5, Pendimethalin 1365 g ai/ha) | % Herbicidal activity ([6]; Saflufenacil 50, Pendimethalin 1064 g ai/ha) | % Herbicidal activity [7]
1 | C#CCN1C(=O)COc2cc(F)c(N3C(=O)C4=C(CCCC4)C3=O)cc21 [Flumioxazin, 2-[7-fluoro-3,4-dihydro-3-oxo-4-(2-propyn-1-yl)-2H-1,4-benzoxazin-6-yl]-4,5,6,7-tetrahydro-1H-isoindole-1,3 (2H)-dione] | 65% | 65% | 15% | 15% | 90% | 98% |  |  |  |  |  | 
2 | CC(C)N(C)S(=O)(=O)NC(=O)c1cc(-n2c(=O)cc(C(F)(F)F)n(C)c2=O)c(F)cc1Cl [Saflufenacil, 2-chloro-5-[3,6-dihydro-3-methyl-2,6-dioxo-4-(trifluoromethyl)-1-(2H)pyrimidinyl]-4-fluoro-N-[[methyl (1-methylethyl)amino]-sulfonyl]benzamide] |  |  |  |  |  |  | 35% | 60% | 0% | 5% | 0% | 0%
